“Also recorded” adds a separate entry of the source.
What was measured:
[1] = tested on: B16F10 melanomas; assay: Flow cytometry of tumor-infiltrating immune cells, B16F10 melanomas treated with CARM1 inhibitor; type: in vivo, mouse
Excerpt: FIG. 15A illustrates changes in tumor microenvironment induced by monotherapy or combination therapy with CARM1 inhibitor, showing treatment of mice with B16F10 melanomas with CARM1 inhibitor or vehicle control. Mice also received isotype control, CTLA-4 or PD-1 mAbs, as indicated (n=5 mice/group). Representative flow plots of CD8 T cells gated on live/singlets/CD45+/CD3+ cells from indicated groups are shown on left. Quantification of CD8 T cells is shown as percentage of CD3+ T cells (middle) or number per gram of tumor (right) for the indicated treatment groups.
FIG. 15B illustrates changes in tumor microenvironment induced by monotherapy or combination therapy with CARM1 inhibitor, showing number of intra-tumoral granzyme B+CD8+ T cells per gram of tumor for the indicated treatment groups (n=5 mice/group). Representative flow plots are shown on left.
FIG. 15C illustrates changes in tumor microenvironment induced by monotherapy or combination therapy with CARM1 inhibitor, showing number of intra-tumoral IL2+CD8+ T cells per gram of tumor for the indicated treatment groups (n=5 mice/group).
FIG. 15D illustrates changes in tumor microenvironment induced by monotherapy or combination therapy with CARM1 inhibitor, showing number of intra-tumoral IFNγ+CD8+ T cells per gram of tumor for the indicated treatment groups (n=5 mice/group). Representative flow plots are shown on left.
FIG. 15E illustrates changes in tumor microenvironment induced by monotherapy or combination therapy with CARM1 inhibitor, showing number of intra-tumoral perforin+CD8+ T cells per gram of tumor for the indicated treatment groups (n=5 mice/group).
FIG. 15F illustrates changes in tumor microenvironment induced by monotherapy or combination therapy with CARM1 inhibitor, showing analysis of intra-tumoral PD1+CD8+ T cells (quantified as percentage of CD8+ T cells) for the indicated treatment groups (n=5 mice/group). Representative flow plots (left) and quantification of PD-1 expression as percentage of CD8 T cells (middle) or MFI (right) are shown.
FIG. 16A illustrates changes in tumor microenvironment induced by monotherapy or combination therapy with CARM1 inhibitor, showing treatment of mice with B16F10 melanomas with CARM1 inhibitor or vehicle control. Mice also received isotype control, CTLA-4 or PD-1 mAbs, as indicated (n=5 mice/group). Quantification of CD4+ T cells (number per gram of tumor) for the indicated treatment groups.
FIG. 16B illustrates changes in tumor microenvironment induced by monotherapy or combination therapy with CARM1 inhibitor, showing quantification of IFNγ+ cells (as percentage of CD4+ T cells) for the indicated treatment groups.
FIG. 16C illustrates changes in tumor microenvironment induced by monotherapy or combination therapy with CARM1 inhibitor, showing quantification of FoxP3+ Treg cells (as percentage of CD4+ T cells) for the indicated treatment groups.
FIG. 16D illustrates changes in tumor microenvironment induced by monotherapy or combination therapy with CARM1 inhibitor, showing quantification of the CD8/FoxP3 Treg ratio for the indicated treatment groups.
FIG. 16E illustrates changes in tumor microenvironment induced by monotherapy or combination therapy with CARM1 inhibitor, showing number of intra-tumoral NK cells (left), dendritic cells (live, singlet, CD45+CD3−F4/80-CD11c+ MHCII^hi) (middle) and macrophages (live, singlet, CD45+CD3−F4/80+) (right) calculated per gram of tumor.
Inhibitor treatment was performed for 14 days because limited quantities of the compound were available.
Tumors were excised on day 18 following tumor cell inoculation and cut into small pieces using sterile scalpels in serum-free RPMI 1640 media (ThermoFisher #11875093). […]

[2] = tested on: malignant melanoma cell lines; details: cited from earlier work
[3] = tested on: B16F10 tumors; assay: B16F10 melanoma tumor model
Method: B16F10 or MC38 tumor cells (2×10^5) were injected subcutaneously in 50 μL of PBS into syngeneic C57BL/6J mice. […] Mice receiving an isotype control mAb (Bio X Cell, clone HRPN #BE0088) at the same dose in PBS were used as controls.
For checkpoint blockade experiments, tumor-bearing mice were administered with anti-CTLA4 mAb (clone 9H10, #BP0131, 100 μg/injection) or corresponding isotype control Ab (polyclonal Syrian hamster IgG, 100 μg/mouse). Alternatively, mice received anti-PD1 (clone 29F.1A12, #BE0273, 200 m/injection) or rat IgG2a isotype control Ab, anti-trinitrophenol (Clone: 2A3, 200 μg/injection) starting on day 7 post tumor inoculation and then every 3rd day.

[4] = tested on: BT549 TNBC cells; assay: T cell cytotoxicity assay, BT549 TNBC cells with NY-ESO-1 TCR human CD8 T cells; type: cell-based; details: pre-treatment 0.1 μM for 24 hours
Method: FIG. 3L illustrates that inactivation of Carm1 gene in tumor cells elicits tumor immunity, showing T cell cytotoxicity assay with human BT549 TNBC and human CD8 T cells that expressed a NY-ESO-1 TCR. […] In FIGS. 3A-3L, two-way ANOVA was used to determine statistical significance for tumor measurements at time points when all mice were alive. Statistical significance for survival of mice in each treatment group were calculated by Log-rank (Mantel-Cox) test. Bar graphs represent data summarized as mean±S.E.M. and were analyzed by unpaired two-sided Mann-Whitney test. Data shown are representative of three experiments. *p<0.05, **p<0.01, ***p<0.001, ****p<0.0001, ns (non-significant).
T cell cytotoxicity assay using human tumor cells was performed using NY-ESO-1 transduced human CD8 T cells and BT549 human triple negative breast cancer cells which were HLA-A02*01 positive and endogenously expressed the NY-ESO-1 antigen. BT549 cells were co-cultured with human CD8 T cells that expressed a NY-ESO-1 TCR at increasing effector to target (E:T) ratios for 12-72 hours. Cytotoxicity was quantified by flow cytometry. All in vitro cytotoxicity assays were performed in human or murine T cell media (without addition of IL-2).

[5] = tested on: RPMI-8226; details: immunodeficient mouse model; cited from earlier work
[6] = Toxicity study in C57Bl/6 mice; details: 150 mg/kg twice daily, oral gavage, 14 days, versus solvent control
Method: Sex and age matched C57Bl/6 mice were randomized into two groups treated twice daily with either CARM1 inhibitor (150 mg/kg) or vehicle via oral gavage for 14 days. Major organs including heart, spleen, kidney, liver, lung and small intestine were harvested for pathological assessment. […] Scale bar=50 μM.

[7] = tested on: malignant melanoma xenograft model; details: oral dosing; cited from earlier work
[8] = tested on: B16F10 cells; assay: RT-qPCR of interferon stimulated genes in B16F10 cells; type: cell-based, murine; details: 0.1-1 μM, 7 days
Method: Total RNA was extracted using the RNeasy Mini Kit (Qiagen) according to the manufacturer's protocol. Extracted RNA (1 μg) was transcribed into cDNA using SuperScript IV VILO master mix with ezDNase enzyme according to the manufacturer's protocol (ThermoFisher). The cDNA samples were diluted and used for real-time quantitative PCR (RT-qPCR). Taqman master mix (ThermoFisher) and gene-specific primers were used for PCR amplification and detection using a QuantStudio 6 Flex Real-Time PCR System (ThermoFisher). The RT-qPCR data were normalized to GAPDH and HPRT (housekeeping genes) and presented as fold change of gene expression in the test sample compared to the control sample.

[9] = all three CARM1 inhibitor treatment groups
[10] = combined with PD-1 or CTLA-4 mAbs
[11] = 150 mg/kg b.i.d. orally days 7-21, in combination with CTLA-4 mAb

In the case of `CNC[C@@H](O)COc1ccc(Cl)c(-c2nc(-c3c(C)noc3C)c(C)c(N3CC4(CCN(C(=O)OC)CC4)C3)n2)c1` (stereo in doubt) [EZM2302], the “number of CD8 T cells (per gram of tumor) that expressed granzyme B, IL-2, IFNγ, and perforin” value [1, 9] is reported as “striking increase”, the “tumor-infiltrating NK cells” value [1, 9] is reported as “increased” and the macrophage numbers ([1]; any of the treatment groups) is reported as “no changes in macrophage numbers”. For the same compound, the “CD8 T cell infiltration” value [1, 10] was “even higher”, the cDC1 cells [1, 10] was “increased” and the “tumor-infiltrating NK cells” value [1, 10] was “highest”. The “PD-1 expression by CD8 T cells” value ([1]; compared to vehicle control group) was “reduced”, the “CD8 T cell infiltration” value ([1]; monotherapy) was “substantially increased” and the “number of tumor-infiltrating CD4 T cells or FoxP3+ Tregs” value ([1]; mouse, in vivo) was “did not change”. The “cell stasis, IC50” value [2] was “nanomolar range”, the “inhibition of PABP1 and SMB methylation, IC50” value [2] was “nanomolar range” and the “sensitization of tumors to checkpoint blockade” value [3, 11] was “sensitized B16F10 melanomas to checkpoint blockade with a CTLA-4 mAb”. The survival [3, 11] was “significant survival benefit”, the B16F10 tumor growth ([3]; oral, 150 mg/kg/day, B16F10 tumor bearing mice) was “significantly suppresses B16F10 tumor growth” and the “CD8 T cell-mediated cytotoxicity” value [4] was “enhanced CD8 T cell-mediated cytotoxicity”. For the same compound, the “in vivo growth of RPMI-8226” value [5] was “moderately slow the in vivo growth”, the “histological changes in major organs” value [6] was “no histological changes” and the weight loss [6] was “no histological changes was observed in a comprehensive analysis of major organs or weight loss”. The anti-tumor activity [7] was “anti-tumor activity”, the “in vivo CARM1 inhibition” value [7] was “dose-dependent in vivo CARM1 inhibition” and the “interferon stimulated gene (ISG) expression / mRNA levels” value [8] was “induced up regulation of the ISGs expression; also recorded: significantly increased the mRNA levels of these ISGs”.

Reference: patent publication US20230201166A1, “METHODS FOR TREATING CANCER BY INHIBITING CARM1” (DANA-FARBER CANCER INSTITUTE, INC., priority 2020, published 2023)
